{"source": "patent US20230219962A1", "about": "“PYRAZOLO[4,3-d]PYRIMIDINE DERIVATIVES AND METHODS OF USE THEREOF FOR THE TREATMENT OF CELLULAR PROLIFERATIVE DISORDERS” (Merck Sharp & Dohme LLC, priority 2020, published 2023)", "key": {"[1]": {"target": "T1, hTLR7 (Homo sapiens, UniProt Q9NYK1)", "T1 construct": "host or cells: HEK-Blue hTLR7 cells (HEK293-derived, own knowledge)", "T1 sequence (Q9NYK1 27-1049)": "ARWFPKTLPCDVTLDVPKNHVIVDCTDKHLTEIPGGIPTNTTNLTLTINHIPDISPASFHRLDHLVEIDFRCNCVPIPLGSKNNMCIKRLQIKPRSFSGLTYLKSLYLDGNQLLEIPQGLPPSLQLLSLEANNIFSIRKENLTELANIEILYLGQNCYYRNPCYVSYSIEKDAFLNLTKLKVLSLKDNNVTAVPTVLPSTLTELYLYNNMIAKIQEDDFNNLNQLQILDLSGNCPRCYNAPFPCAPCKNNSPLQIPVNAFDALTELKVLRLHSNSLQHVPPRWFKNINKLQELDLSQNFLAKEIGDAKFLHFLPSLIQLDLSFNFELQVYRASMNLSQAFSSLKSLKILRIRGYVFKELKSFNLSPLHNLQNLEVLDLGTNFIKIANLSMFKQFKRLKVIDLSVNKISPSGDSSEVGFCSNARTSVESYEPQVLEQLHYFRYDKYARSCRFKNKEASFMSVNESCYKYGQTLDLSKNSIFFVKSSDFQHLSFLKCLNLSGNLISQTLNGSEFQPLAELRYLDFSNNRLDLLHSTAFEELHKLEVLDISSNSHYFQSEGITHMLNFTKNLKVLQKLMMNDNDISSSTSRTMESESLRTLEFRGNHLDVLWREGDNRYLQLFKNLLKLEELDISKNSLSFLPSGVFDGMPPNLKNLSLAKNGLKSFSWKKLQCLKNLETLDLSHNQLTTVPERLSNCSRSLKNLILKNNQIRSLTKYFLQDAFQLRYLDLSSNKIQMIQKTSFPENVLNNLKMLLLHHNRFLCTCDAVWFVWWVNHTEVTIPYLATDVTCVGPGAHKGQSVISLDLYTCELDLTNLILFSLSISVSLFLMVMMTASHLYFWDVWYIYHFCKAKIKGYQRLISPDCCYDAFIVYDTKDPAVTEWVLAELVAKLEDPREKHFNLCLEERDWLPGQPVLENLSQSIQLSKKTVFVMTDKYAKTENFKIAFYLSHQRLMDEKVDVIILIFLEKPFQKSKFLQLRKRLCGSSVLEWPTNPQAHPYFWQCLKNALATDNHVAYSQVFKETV", "assay": "Human TLR7 Reporter Assay", "type": "cell-based", "settings": "HEK-Blue hTLR7 cells, 16 hours, normalized to CL097 (6 μM) and DMSO", "outline": "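HEK-Blue hTLR7 reporter cells (20,000/well) incubated 16 h at 37 °C with 10-point 3-fold compound dilutions; SEAP read by absorbance at 620 nm. Effects normalized between CL097 (6 μM) and DMSO controls; EC50 from 4-parameter fit.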"}, "[2]": {"target": "T2, hTLR8 (Homo sapiens, UniProt Q9NR97)", "T2 construct": "host or cells: HEK-Blue hTLR8 cells (HEK293-derived, own knowledge)", "T2 sequence (Q9NR97 27-1041)": "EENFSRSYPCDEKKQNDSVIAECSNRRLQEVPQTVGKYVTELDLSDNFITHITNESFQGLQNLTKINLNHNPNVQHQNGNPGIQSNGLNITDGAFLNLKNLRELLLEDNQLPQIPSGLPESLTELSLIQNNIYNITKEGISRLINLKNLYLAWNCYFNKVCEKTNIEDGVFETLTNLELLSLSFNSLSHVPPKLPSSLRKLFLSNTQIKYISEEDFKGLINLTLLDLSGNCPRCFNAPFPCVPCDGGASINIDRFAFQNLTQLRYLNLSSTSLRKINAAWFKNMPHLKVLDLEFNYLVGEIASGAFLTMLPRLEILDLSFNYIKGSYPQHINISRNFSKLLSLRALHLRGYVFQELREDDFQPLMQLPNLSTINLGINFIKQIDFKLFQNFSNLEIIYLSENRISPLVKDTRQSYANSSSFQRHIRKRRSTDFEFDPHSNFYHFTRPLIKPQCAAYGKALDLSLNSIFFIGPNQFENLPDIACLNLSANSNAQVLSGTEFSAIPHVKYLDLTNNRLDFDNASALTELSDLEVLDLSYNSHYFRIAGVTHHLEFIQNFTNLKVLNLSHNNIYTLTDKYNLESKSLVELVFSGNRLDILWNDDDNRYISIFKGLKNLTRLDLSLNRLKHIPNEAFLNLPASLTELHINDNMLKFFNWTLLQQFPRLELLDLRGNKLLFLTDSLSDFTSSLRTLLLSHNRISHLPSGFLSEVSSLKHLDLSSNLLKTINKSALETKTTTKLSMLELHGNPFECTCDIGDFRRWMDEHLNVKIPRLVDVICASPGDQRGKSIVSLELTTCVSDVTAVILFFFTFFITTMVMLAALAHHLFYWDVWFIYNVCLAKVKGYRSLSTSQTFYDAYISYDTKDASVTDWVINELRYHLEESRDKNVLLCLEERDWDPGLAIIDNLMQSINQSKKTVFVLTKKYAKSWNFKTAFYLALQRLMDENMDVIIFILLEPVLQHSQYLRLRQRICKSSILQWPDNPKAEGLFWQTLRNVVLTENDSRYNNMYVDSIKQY", "assay": "Human TLR8 Reporter Assay", "type": "cell-based", "settings": "HEK-Blue hTLR8 cells, 16 hours, normalized to tl8-506 (1 μM) and DMSO", "outline": "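HEK-Blue hTLR8 cells (20,000/well) incubated 16 h at 37 °C with 10-point 3-fold compound dilutions in HEK-Blue Detection medium; reporter read as absorbance at 620 nm. Effects normalized between DMSO and tl8-506 (1 μM); EC50 from 4-parameter fit.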"}}}
{"smiles": "CCCCNc1nc(N)nc2cn(Cc3ccc(CN4CCN(C(=O)CCN5C(=O)C=CC5=O)CC4)cc3)nc12", "note": "[Compound 119]", "values": [{"measurement": "EC50", "setting": "[1]", "value": 6650, "unit": "nM"}, {"measurement": "EC50", "setting": "[2]", "value": 22500, "unit": "nM"}]}
{"smiles": "CCCCNc1nc(N)nc2cn(Cc3ccc(CC(C)N)cc3OC)nc12", "note": "(stereo not drawn) [Compound 178]", "values": [{"measurement": "EC50", "setting": "[1]", "value": 294, "unit": "nM"}, {"measurement": "EC50", "setting": "[2]", "value": 455, "unit": "nM"}]}
{"smiles": "CCCCNc1nc(N)nc2cnn(Cc3c(OC)cc(CN4CCNCC4)cc3OC)c12", "note": "[Compound 63]", "values": [{"measurement": "EC50", "setting": "[1]", "value": 50.8, "unit": "nM"}, {"measurement": "EC50", "setting": "[2]", "value": 2410, "unit": "nM"}]}
{"smiles": "CCCCNc1nc(N)nc2cn(Cc3ccc(CN4C(=O)C=CC4=O)cc3OC)nc12", "note": "[Compound 104]", "values": [{"measurement": "EC50", "setting": "[1]", "value": 292, "unit": "nM"}, {"measurement": "EC50", "setting": "[2]", "value": 2040, "unit": "nM"}]}
{"smiles": "CCCCC(CCC)Nc1nc(N)nc2cn(Cc3ccccc3OC)nc12", "note": "(stereo not drawn) [Compound 18]", "values": [{"measurement": "EC50", "setting": "[1]", "value": 315, "unit": "nM"}, {"measurement": "EC50", "setting": "[2]", "value": "> 29900", "unit": "nM"}]}
{"smiles": "CCCCNc1nc(N)nc2cn(Cc3ccc(N)cc3OC)nc12", "note": "[Compound 166]", "values": [{"measurement": "EC50", "setting": "[1]", "value": 93, "unit": "nM"}, {"measurement": "EC50", "setting": "[2]", "value": 632, "unit": "nM"}]}
{"smiles": "COCCNc1nc(N)nc2cn(Cc3c(OC)cccc3OC)nc12", "note": "[Compound 46]", "values": [{"measurement": "EC50", "setting": "[1]", "value": 353, "unit": "nM"}, {"measurement": "EC50", "setting": "[2]", "value": 1080, "unit": "nM"}]}
{"smiles": "CCCCNc1nc(N)nc2cn(Cc3ccc(CC(C)N)cc3OC)nc12", "note": "(stereo not drawn) [Compound 176]", "values": [{"measurement": "EC50", "setting": "[1]", "value": 329, "unit": "nM"}, {"measurement": "EC50", "setting": "[2]", "value": 467, "unit": "nM"}]}
{"smiles": "CCCCNc1nc(N)nc2cn(Cc3ccccc3)nc12", "note": "[Compound 2]", "values": [{"measurement": "EC50", "setting": "[1]", "value": 1090, "unit": "nM"}, {"measurement": "EC50", "setting": "[2]", "value": 4210, "unit": "nM"}]}
{"smiles": "CCC[C@@H](CO)Nc1nc(N)nc2cn(Cc3ccc(N4CCN(C(=O)C5CCC(CN6C(=O)C=CC6=O)CC5)CC4)cc3OC)nc12", "note": "(stereo partly drawn) [Compound 153]", "values": [{"measurement": "EC50", "setting": "[1]", "value": 1060, "unit": "nM"}, {"measurement": "EC50", "setting": "[2]", "value": 3140, "unit": "nM"}]}
{"smiles": "CCC[C@@H](CO)Nc1nc(N)nc2cn(Cc3ncc(CNC)cc3OC)nc12", "note": "[Compound 195]", "values": [{"measurement": "EC50", "setting": "[1]", "value": 1590, "unit": "nM"}, {"measurement": "EC50", "setting": "[2]", "value": 785, "unit": "nM"}]}
{"smiles": "CCCCNc1nc(N)nc2cn(Cc3cc(C)nn3C)nc12", "note": "[Compound 173]", "values": [{"measurement": "EC50", "setting": "[1]", "value": 246, "unit": "nM"}, {"measurement": "EC50", "setting": "[2]", "value": 2730, "unit": "nM"}]}
{"smiles": "CCCC(Nc1nc(N)nc2cn(Cc3c(OC)cccc3OC)nc12)C(F)(F)F", "note": "(stereo not drawn) [Compound 126]", "values": [{"measurement": "EC50", "setting": "[1]", "value": 707, "unit": "nM"}, {"measurement": "EC50", "setting": "[2]", "value": "> 9980", "unit": "nM"}]}
{"smiles": "CCC[C@@H](CO)Nc1nc(N)nc2cn(Cc3c(OC)cc(C(C)N)cc3OC)nc12", "note": "(stereo partly drawn) [Compound 224]", "values": [{"measurement": "EC50", "setting": "[1]", "value": 3650, "unit": "nM"}, {"measurement": "EC50", "setting": "[2]", "value": 2250, "unit": "nM"}]}
{"smiles": "CCCCNc1nc(N)nc2cn(Cc3ncc(CNC)cc3OC)nc12", "note": "[Compound 163]", "values": [{"measurement": "EC50", "setting": "[1]", "value": 476, "unit": "nM"}, {"measurement": "EC50", "setting": "[2]", "value": 809, "unit": "nM"}]}
{"smiles": "CCCCNc1nc(N)nc2cn(Cc3ccccc3C)nc12", "note": "[Compound 3]", "values": [{"measurement": "EC50", "setting": "[1]", "value": 1220, "unit": "nM"}, {"measurement": "EC50", "setting": "[2]", "value": "> 29900", "unit": "nM"}]}
{"smiles": "CCCCNc1nc(N)nc2cn(Cc3ccc(C(C)N)cc3OC)nc12", "note": "(stereo not drawn) [Compound 167]", "values": [{"measurement": "EC50", "setting": "[1]", "value": 357, "unit": "nM"}, {"measurement": "EC50", "setting": "[2]", "value": 179, "unit": "nM"}]}
{"smiles": "CCCCNc1nc(N)nc2cn(Cc3ccncc3OC)nc12", "note": "[Compound 93]", "values": [{"measurement": "EC50", "setting": "[1]", "value": 120, "unit": "nM"}, {"measurement": "EC50", "setting": "[2]", "value": 611, "unit": "nM"}]}
{"smiles": "CCCCNc1nc(N)nc2cn(Cc3c(OC)cc(SC[C@H](N)C(=O)O)cc3OC)nc12", "note": "[Compound 230]", "values": [{"measurement": "EC50", "setting": "[1]", "value": 898, "unit": "nM"}, {"measurement": "EC50", "setting": "[2]", "value": 8840, "unit": "nM"}]}
{"smiles": "CCCCNc1nc(N)nc2cn(Cc3ccccc3OC(F)F)nc12", "note": "[Compound 179]", "values": [{"measurement": "EC50", "setting": "[1]", "value": 226, "unit": "nM"}, {"measurement": "EC50", "setting": "[2]", "value": 1890, "unit": "nM"}]}
{"smiles": "CCCCNc1nc(N)nc2cn(Cc3ccc(CN4CC(N)C4)cc3OC)nc12", "note": "[Compound 191]", "values": [{"measurement": "EC50", "setting": "[1]", "value": 541, "unit": "nM"}, {"measurement": "EC50", "setting": "[2]", "value": 860, "unit": "nM"}]}
{"smiles": "CCCCNc1nc(N)nc2cn(Cc3c(OC)cccc3OCCCCO)nc12", "note": "[Compound 208]", "values": [{"measurement": "EC50", "setting": "[1]", "value": 299, "unit": "nM"}, {"measurement": "EC50", "setting": "[2]", "value": 906, "unit": "nM"}]}
{"smiles": "CCCCNc1nc(N)nc2cn(Cc3ccc(C(C)NC)cc3OC)nc12", "note": "(stereo not drawn) [Compound 193]", "values": [{"measurement": "EC50", "setting": "[1]", "value": 57.7, "unit": "nM"}, {"measurement": "EC50", "setting": "[2]", "value": 106, "unit": "nM"}]}
{"smiles": "CCCCNc1nc(N)nc2cn(Cc3nc(Br)oc3C)nc12", "note": "[Compound 160]", "values": [{"measurement": "EC50", "setting": "[1]", "value": 373, "unit": "nM"}, {"measurement": "EC50", "setting": "[2]", "value": 8300, "unit": "nM"}]}
